Experimental data published in patent US6514692B2, “Method for treatment of immunodeficiency virus infection” (priority 1996, dated 2003).
“And” between values parts separate entries of the source, which are not always exact repeats. Identical values can stand only once. Like-named read-outs stand apart in the source and are kept apart here.

Columns and labels:
ME180 cells = assay: toxicity (XTT) in transmission inhibition assay; details: for TOXICITY VALUES (XTT), single samples: samples 1-3; for TC50 (concentration at which 50% of cells are eliminated): interpolation from % CC
Excerpt: (§1) ME180 cells, a cervical epithelial cell line, were obtained from the American Type Culture Collection. These cells were thawed from liquid nitrogen and grown in RPMI 1640 medium supplemented with 10t fetal bovine serum, glutamine and antibiotics. The cells were adherent and were trypsinized (0.5% trypsin in HBSS) to remove them from the flask for passaging and use in assays. For use in the microtiter transmission inhibition assay, ME180 cells were trypsinized, washed and seeded in 96-well flat bottom microtiter plates (COSTAR) at a density of 5×10^3 cells per well. The cells were incubated at 37° C. for 24 hours prior to the tart of the assay. H9 cells chronically infected with he SK1 isolate of HIV-1 were treated with 200 μg/ml mitomycin C for 60 minutes at 37° C. After treatment the cells were washed three times with tissue culture medium. The chronically infected lymphocytes were added to each well at a density of 2×10^4 cells per well. The concentration of mitomycin C used in the treatment of the lymphocytes was chosen to allow lymphocyte survival for the period of time required to transmit virus to the uninfected ME180 cells, but to die prior to the time of assay so as not to contribute to the p24 signal used as the endpoint (see below). In the transmission assay the lytic peptides D4E1 and D2A21, with and without 150 μg/ml pig mucin, were added prior to the addition of chronically infected cells or were mixed with the chronically infected cells prior to their addition to the monolayer of ME180 cells. Mucin was included because it is an abundant constituent of the normal vaginal secretions of a human being, thus any chemotherapeutic agent targeting HIV should be active in its presence if it is to have clinical value. […] The lymphocytes and peptide were co-cultured with the ME180 cells for 6 hours and then removed by washing the ME180 monolayer four times with PBS. The plate was then incubated at 37° C. for six days. Medium was removed and changed every 48 hours during the incubation stage. No further peptide was added after the initial dose. At six days post-co-cultivation, the supernatant was removed from the wells and evaluated for the quantity of p24 antigen by ELISA. The ELISA was performed according to the manufacturer's recommendations. The amount of virus production in wells treated with various concentrations of the peptides was evaluated with appropriate cell and virus controls. Data are reported as a percent of virus control at each drug concentration. Linear regression analysis was used to calculate the […] and IC95 concentrations of the transmission inhibitor. […] TI represents the toxicity index, which is the ratio of the TC50/IC50, and is an indication of the relative concentrations window that exists between efficacy and toxicity.

SK1 isolate of HIV-1 = details: for p24 VALUES, single samples: samples 1-3; for IC50 (inhibition of cell-cell transmission): linear regression
Excerpt: as §1

[1] = 0.32 μg/ml, with 150 μg/ml pig mucin
[2] = 1 μg/ml, with 150 μg/ml pig mucin
[3] = 3.2 μg/ml, with 150 μg/ml pig mucin
[4] = 10 μg/ml, with 150 μg/ml pig mucin
[5] = 32 μg/ml, with 150 μg/ml pig mucin
[6] = 100 μg/ml, with 150 μg/ml pig mucin

Dextran
% CC (XTT, percent of cell control) (ME180 cells; 0.32 μg/ml, no mucin): 90.1%
TOXICITY VALUES (XTT), MEAN (ME180 cells; 0.32 μg/ml, no mucin): 0.458 O.D. @ 450/650 nm
TOXICITY VALUES (XTT), single samples (ME180 cells; 0.32 μg/ml, no mucin): 0.462 O.D. @ 450/650 nm and 0.463 O.D. @ 450/650 nm and 0.488 O.D. @ 450/650 nm
% CC (XTT, percent of cell control) (ME180 cells; [1]): 90.1%
TOXICITY VALUES (XTT), MEAN (ME180 cells; [1]): 0.458 O.D. @ 450/650 nm
TOXICITY VALUES (XTT), single samples (ME180 cells; [1]): 0.462 O.D. @ 450/650 nm and 0.463 O.D. @ 450/650 nm and 0.448 O.D. @ 450/650 nm
% CC (XTT, percent of cell control) (ME180 cells; 1 μg/ml, no mucin): 88.1%
TOXICITY VALUES (XTT), MEAN (ME180 cells; 1 μg/ml, no mucin): 0.447 O.D. @ 450/650 nm
TOXICITY VALUES (XTT), single samples (ME180 cells; 1 μg/ml, no mucin): 0.425 O.D. @ 450/650 nm and 0.457 O.D. @ 450/650 nm and 0.450 O.D. @ 450/650 nm
% CC (XTT, percent of cell control) (ME180 cells; [2]): 88.1%
TOXICITY VALUES (XTT), MEAN (ME180 cells; [2]): 0.447 O.D. @ 450/650 nm
TOXICITY VALUES (XTT), single samples (ME180 cells; [2]): 0.425 O.D. @ 450/650 nm and 0.467 O.D. @ 450/650 nm and 0.450 O.D. @ 450/650 nm
% CC (XTT, percent of cell control) (ME180 cells; 3.2 μg/ml, no mucin): 91.1%
TOXICITY VALUES (XTT), MEAN (ME180 cells; 3.2 μg/ml, no mucin): 0.463 O.D. @ 450/650 nm
TOXICITY VALUES (XTT), single samples (ME180 cells; 3.2 μg/ml, no mucin): 0.477 O.D. @ 450/650 nm and 0.453 O.D. @ 450/650 nm and 0.459 O.D. @ 450/650 nm
% CC (XTT, percent of cell control) (ME180 cells; [3]): 91.1%
TOXICITY VALUES (XTT), MEAN (ME180 cells; [3]): 0.463 O.D. @ 450/650 nm
TOXICITY VALUES (XTT), single samples (ME180 cells; [3]): 0.477 O.D. @ 450/650 nm and 0.453 O.D. @ 450/650 nm and 0.459 O.D. @ 450/650 nm
% CC (XTT, percent of cell control) (ME180 cells; 10 μg/ml, no mucin): 92.0%
TOXICITY VALUES (XTT), MEAN (ME180 cells; 10 μg/ml, no mucin): 0.467 O.D. @ 450/650 nm
TOXICITY VALUES (XTT), single samples (ME180 cells; 10 μg/ml, no mucin): 0.468 O.D. @ 450/650 nm and 0.467 O.D. @ 450/650 nm
% CC (XTT, percent of cell control) (ME180 cells; [4]): 92.0%
TOXICITY VALUES (XTT), MEAN (ME180 cells; [4]): 0.467 O.D. @ 450/650 nm
TOXICITY VALUES (XTT), single samples (ME180 cells; [4]): 0.468 O.D. @ 450/650 nm and 0.467 O.D. @ 450/650 nm
% CC (XTT, percent of cell control) (ME180 cells; 32 μg/ml, no mucin): 91.7%
TOXICITY VALUES (XTT), MEAN (ME180 cells; 32 μg/ml, no mucin): 0.466 O.D. @ 450/650 nm
TOXICITY VALUES (XTT), single samples (ME180 cells; 32 μg/ml, no mucin): 0.457 O.D. @ 450/650 nm and 0.438 O.D. @ 450/650 nm and 0.493 O.D. @ 450/650 nm
% CC (XTT, percent of cell control) (ME180 cells; [5]): 91.7%
TOXICITY VALUES (XTT), MEAN (ME180 cells; [5]): 0.466 O.D. @ 450/650 nm
TOXICITY VALUES (XTT), single samples (ME180 cells; [5]): 0.467 O.D. @ 450/650 nm and 0.438 O.D. @ 450/650 nm and 0.493 O.D. @ 450/650 nm
% CC (XTT, percent of cell control) (ME180 cells; 100 μg/ml, no mucin): 97.8%
TOXICITY VALUES (XTT), MEAN (ME180 cells; 100 μg/ml, no mucin): 0.497 O.D. @ 450/650 nm
TOXICITY VALUES (XTT), single samples (ME180 cells; 100 μg/ml, no mucin): 0.481 O.D. @ 450/650 nm and 0.491 O.D. @ 450/650 nm and 0.519 O.D. @ 450/650 nm
% CC (XTT, percent of cell control) (ME180 cells; [6]): 97.8%
TOXICITY VALUES (XTT), MEAN (ME180 cells; [6]): 0.497 O.D. @ 450/650 nm
TOXICITY VALUES (XTT), single samples (ME180 cells; [6]): 0.481 O.D. @ 450/650 nm and 0.491 O.D. @ 450/650 nm and 0.519 O.D. @ 450/650 nm
TC50 (concentration at which 50% of cells are eliminated) (ME180 cells; no mucin): TC50 = 100 μg/ml
TC50 (concentration at which 50% of cells are eliminated) (ME180 cells; with 150 μg/ml pig mucin): TC50 = 100 μg/ml
% VC (p24, percent of virus control) (SK1 isolate of HIV-1; 0.32 μg/ml, no mucin): 93.4%
p24 VALUES, MEAN (SK1 isolate of HIV-1; 0.32 μg/ml, no mucin): 51.0 µg/mL
p24 VALUES, single samples (SK1 isolate of HIV-1; 0.32 μg/ml, no mucin): 52.2 µg/mL and 52.5 µg/mL and 48.2 µg/mL
% VC (p24, percent of virus control) (SK1 isolate of HIV-1; [1]): 90.6%
p24 VALUES, MEAN (SK1 isolate of HIV-1; [1]): 56.2 µg/mL
p24 VALUES, single samples (SK1 isolate of HIV-1; [1]): 56.2 µg/mL and 53.5 µg/mL and 58.9 µg/mL
% VC (p24, percent of virus control) (SK1 isolate of HIV-1; 1 μg/ml, no mucin): 100.2%
p24 VALUES, MEAN (SK1 isolate of HIV-1; 1 μg/ml, no mucin): 54.7 µg/mL
p24 VALUES, single samples (SK1 isolate of HIV-1; 1 μg/ml, no mucin): 53.5 µg/mL and 57.0 µg/mL
% VC (p24, percent of virus control) (SK1 isolate of HIV-1; [2]): 86.72%
p24 VALUES, MEAN (SK1 isolate of HIV-1; [2]): 53.1 µg/mL
p24 VALUES, single samples (SK1 isolate of HIV-1; [2]): 51.0 µg/mL and 57.5 µg/mL and 50.9 µg/mL
% VC (p24, percent of virus control) (SK1 isolate of HIV-1; 3.2 μg/ml, no mucin): 91.4%
p24 VALUES, MEAN (SK1 isolate of HIV-1; 3.2 μg/ml, no mucin): 49.9 µg/mL
p24 VALUES, single samples (SK1 isolate of HIV-1; 3.2 μg/ml, no mucin): 50.3 µg/mL and 47.2 µg/mL and 52.2 µg/mL
% VC (p24, percent of virus control) (SK1 isolate of HIV-1; [3]): 88.2%
p24 VALUES, MEAN (SK1 isolate of HIV-1; [3]): 54.7 µg/mL
p24 VALUES, single samples (SK1 isolate of HIV-1; [3]): 52.1 µg/mL and 54.7 µg/mL and 57.3 µg/mL
% VC (p24, percent of virus control) (SK1 isolate of HIV-1; 10 μg/ml, no mucin): 84.1%
p24 VALUES, MEAN (SK1 isolate of HIV-1; 10 μg/ml, no mucin): 45.9 µg/mL
p24 VALUES, single samples (SK1 isolate of HIV-1; 10 μg/ml, no mucin): 45.3 µg/mL and 45.7 µg/mL and 46.6 µg/mL
% VC (p24, percent of virus control) (SK1 isolate of HIV-1; [4]): 92.6%
p24 VALUES, MEAN (SK1 isolate of HIV-1; [4]): 57.5 µg/mL
p24 VALUES, single samples (SK1 isolate of HIV-1; [4]): 53.2 µg/mL and 58.1 µg/mL and 61.1 µg/mL
% VC (p24, percent of virus control) (SK1 isolate of HIV-1; 32 μg/ml, no mucin): 96.0%
p24 VALUES, MEAN (SK1 isolate of HIV-1; 32 μg/ml, no mucin): 52.4 µg/mL
p24 VALUES, single samples (SK1 isolate of HIV-1; 32 μg/ml, no mucin): 51.9 µg/mL and 53.2 µg/mL and 52.0 µg/mL
% VC (p24, percent of virus control) (SK1 isolate of HIV-1; [5]): 102.7%
p24 VALUES, MEAN (SK1 isolate of HIV-1; [5]): 63.7 µg/mL
p24 VALUES, single samples (SK1 isolate of HIV-1; [5]): 65.5 µg/mL and 60.5 µg/mL and 65.1 µg/mL
% VC (p24, percent of virus control) (SK1 isolate of HIV-1; 100 μg/ml, no mucin): 94.5%
p24 VALUES, MEAN (SK1 isolate of HIV-1; 100 μg/ml, no mucin): 51.6 µg/mL
p24 VALUES, single samples (SK1 isolate of HIV-1; 100 μg/ml, no mucin): 52.6 µg/mL and 52.0 µg/mL and 50.1 µg/mL
% VC (p24, percent of virus control) (SK1 isolate of HIV-1; [6]): 104.2%
p24 VALUES, MEAN (SK1 isolate of HIV-1; [6]): 64.6 µg/mL
p24 VALUES, single samples (SK1 isolate of HIV-1; [6]): 63.7 µg/mL and 59.6 µg/mL and 70.6 µg/mL
IC50 (inhibition of cell-cell transmission) (SK1 isolate of HIV-1; no mucin): IC50 = 100 μg/ml
IC50 (inhibition of cell-cell transmission) (SK1 isolate of HIV-1; with 150 μg/ml pig mucin): IC50 = 100 μg/ml
